Reference: patent US8841321B2, “Quinoline derivatives as antibacterial agents” (Janssen Pharmaceutica NV, priority 2005, dated 2014)
Values after ≈ are worked out from the molar mass of the structure shown.

How the values were obtained:
[1] = system: STA 29213 (Staphylococcus aureus (ATCC29213)); assay: Microtitre plate assay, IC90 determination; format: cell-based; details: for IC90 (μg/ml) STA 29213: Staphylococcus aureus (ATCC29213); for IC90: Staphylococcus aureus, ATCC29213, Staphylococcus aureus (ATCC29213), read-out: IC90 (μg/ml) STA 29213
Procedure: (§1) The bacteria used in this study were grown overnight in flasks containing 100 ml Mueller-Hinton Broth (Becton Dickinson—cat. no. 275730) in sterile de-ionized water, with shaking, at 37° C. Stocks (0.5 ml/tube) were stored at −70° C. until use. Bacteria titrations were performed in microtiter plates and colony forming units (CFUs) were determined. In general, an inoculum level of approximately 100 CFUs was used for susceptibility testing.
(§2) Flat-bottom, sterile 96-well plastic microtiter plates were filled with 180 μl of sterile deionized water, supplemented with 0.25% BSA. Subsequently, stock solutions (7.8× final test concentration) of compounds were added in 45 μl volumes in column 2. Serial five-fold dilutions (45 μl in 180 μl) were made directly in the microtiter plates from column 2 to reach column 11. Untreated control samples with (column 1) and without (column 12) inoculum were included in each microtiter plate. Depending on the bacteria type, approximately 10 to 60 CFU per well of bacteria inoculum (100 TCID50), in a volume of 100 μl in 2.8× Mueller-Hinton broth medium, was added to the rows A to H, except column 12. The same volume of broth medium without inoculum was added to column 12 in row A to H. The cultures were incubated at 37° C. for 24 hours under a normal atmosphere (incubator with open air valve and continuous ventilation). At the end of incubation, one day after inoculation, the bacterial growth was quantitated fluorometrically. Therefore resazurin (0.6 mg/ml) was added in a volume of 20 μl to all wells 3 hours after inoculation, and the plates were re-incubated overnight. A change in colour from blue to pink indicated the growth of bacteria. The fluorescence was read in a computer-controlled fluorometer (Cytofluor Biosearch) at an excitation wavelength of 530 nm and an emission wavelength of 590 nm. The % growth inhibition achieved by the compounds was calculated according to standard methods. The IC90 (expressed in μg/ml) was defined as the 90% inhibitory concentration for bacterial growth.

[2] = system: SPN 6305 (Streptococcus pneumoniae (ATCC6305)); assay: Microtitre plate assay, IC90 determination; format: cell-based; details: for IC90 (μg/ml) SPN 6305: Streptococcus pneumoniae (ATCC6305); for IC90: Streptococcus pneumoniae, ATCC6305, Streptococcus pneumoniae (ATCC6305), read-out: IC90 (μg/ml) SPN 6305
Procedure: as §1, §2

Row | SMILES | IC90 (μg/ml) STA 29213 [1] [µg/mL] | IC90 (μg/ml) SPN 6305 [2] [µg/mL] | IC90 [2] [µg/mL] | IC90 [1] [µg/mL]
1 | COc1nc2ccc(Br)cc2cc1C(c1ccccc1)C(O)(CCCCN(C)C)CC(C)C (racemic) [Compound 118] | 8.14 (≈ 15.9 µM) | 5.14 (≈ 10 µM) |  | 
2 | COc1nc2ccc(Br)cc2cc1C(c1ccccc1)C(O)(CCCCN(C)Cc1ccccc1)c1ccccc1 (centres unmarked) [Compound 61] |  |  | 5.43 (≈ 8.91 µM) | 
3 | COc1nc2ccccc2cc1C(c1ccc(-c2ccccc2)cc1)C(O)(CCCCN(C)C)c1ccc2ccccc2c1 (centres unmarked) [Compound 175] | 1.84 (≈ 3.17 µM) | 2.06 (≈ 3.55 µM) |  | 
4 | COc1ccc(C(c2cc3cc(Br)ccc3nc2OC)C(O)(CCCCN2CCCCC2)c2ccccc2)cc1 (single isomer, unassigned) [Compound 166] | 1.91 (≈ 3.16 µM) | 1.91 (≈ 3.16 µM) |  | 
5 | COc1nc2ccc(Br)cc2cc1C(c1ccccc1)C(O)(CCCCN1CCCCC1)c1ccccc1 (racemic) [Compound 94] | 4.06 (≈ 7.08 µM) | 1.81 (≈ 3.16 µM) |  | 
6 | COc1nc2ccc(-c3cccnc3)cc2cc1C(c1ccccc1)C(O)(CCCCN(C)C)c1ccccc1 (centres unmarked) [Compound 43] |  |  |  | 21.2 (≈ 39.9 µM)
7 | COc1nc2ccc(Br)cc2cc1C(c1ccccc1)C(O)(CCCCN(C)C)Cc1ccccc1 (single isomer, unassigned) [Compound 127] | 1.73 (≈ 3.16 µM) | 1.73 (≈ 3.16 µM) |  | 
8 | COc1nc2ccccc2cc1C(c1ccc(Br)cc1)C(O)(CCCCN(C)C)c1ccc2ccccc2c1 (centres unmarked) [Compound 63] |  |  | 2.32 (≈ 3.98 µM) | 1.85 (≈ 3.17 µM)
9 | COc1nc2ccc(C)cc2cc1C(c1ccccc1)C(O)(CCCCCN(C)C)c1ccccc1 (single isomer, unassigned) [Compound 153] | 3.8 (≈ 7.87 µM) | 7.65 (≈ 15.8 µM) |  | 
10 | COc1nc2ccc(Br)cc2cc1C(c1ccccc1)C(O)(CCCCN(C)C)CCC(C)C (racemic) [Compound 119] | 18.72 (≈ 35.5 µM) | 4.19 (≈ 7.94 µM) |  | 
11 | COc1nc2ccc(Br)cc2cc1C(c1ccccc1)C(O)(CCCCN(C)C)CCc1ccco1 (single isomer, unassigned) [Compound 129] | 6.19 (≈ 11.2 µM) | 1.74 (≈ 3.15 µM) |  | 
12 | COc1nc2ccc(Br)cc2cc1C(c1ccccc1)C(O)(CCCCN(C)C)Cc1ccccc1 (single isomer, unassigned) [Compound 128] | 1.73 (≈ 3.16 µM) |  |  | 
13 | COc1nc2ccc(Br)cc2cc1C(c1ccccc1)C(O)(CCCCCN(C)C)c1ccccc1 (single isomer, unassigned) [Compound 155] | 1.7 (≈ 3.1 µM) | 1.7 (≈ 3.1 µM) |  | 
14 | CCCCN(C)CCCCC(O)(c1ccccc1)C(c1ccccc1)c1cc2cc(Br)ccc2nc1OC (racemic) [Compound 92] | 11.48 (≈ 19.9 µM) | 2.29 (≈ 3.98 µM) |  | 
15 | COc1nc2ccc(Br)cc2cc1C(c1ccccc1)C(O)(CCCCN1CCCCC1)c1ccccc1 (racemic) [Compound 95] | 10.2 (≈ 17.8 µM) | 2.28 (≈ 3.98 µM) |  | 
16 | COc1nc2ccc(Br)cc2cc1C(c1ccccc1)C(O)(CCCCN1CCN(C)CC1)c1ccc2ccccc2c1 (single isomer, unassigned) [Compound 113] | 14.3 (≈ 22.4 µM) | 2.54 (≈ 3.98 µM) |  | 
17 | COc1nc2ccc(Br)cc2cc1C(c1ccccc1)C(O)(CCCCc1ccccc1)CCCCN(C)C (single isomer, unassigned) [Compound 147] | 9.34 (≈ 15.8 µM) | 9.34 (≈ 15.8 µM) |  | 
18 | COc1nc2ccc(Br)cc2cc1C(c1ccccc1)C(O)(CCCCN1CCOCC1)c1ccccc1 (single isomer, unassigned) [Compound 116] | 5.76 (≈ 10 µM) | 2.04 (≈ 3.54 µM) |  | 

Row | SMILES | IC90 (μg/ml) STA 29213 [1] [µg/mL] | IC90 (μg/ml) SPN 6305 [2] [µg/mL] | IC90 [2] [µg/mL] | IC90 [1] [µg/mL]
19 | COc1nc2ccc(Br)cc2cc1C(c1ccccc1)C(O)(CCCCN1CCOCC1)c1ccccc1 (single isomer, unassigned) [Compound 115] |  | 2.29 (≈ 3.98 µM) |  | 
20 | COc1nc2ccc(Br)cc2cc1C(c1ccccc1)C(O)(CCCCN1CCCCC1)CCC(C)C (single isomer, unassigned) [Compound 123] | 2.26 (≈ 3.98 µM) | 1.79 (≈ 3.15 µM) |  | 
21 | COc1nc2ccc(Br)cc2cc1C(c1ccccc1)C(O)(CCCCc1ccccc1)CCCCN1CCCCC1 (single isomer, unassigned) [Compound 148] | 1.99 (≈ 3.16 µM) | 2.23 (≈ 3.54 µM) |  | 
22 | COc1nc2cc(C)ccc2cc1C(c1ccccc1)C(O)(CCCCN(C)C)c1ccc2ccccc2c1 (single isomer, unassigned) [Compound 77] | 1.84 (≈ 3.55 µM) | 1.84 (≈ 3.55 µM) |  | 
23 | COc1nc2ccc(Br)cc2cc1C(c1ccccc1)C(O)(CCCCc1ccccc1)CCCCN1CCCCC1 (single isomer, unassigned) [Compound 149] | 1.99 (≈ 3.16 µM) | 2.23 (≈ 3.54 µM) |  | 
24 | COc1nc2ccc(Br)cc2cc1C(c1ccccc1)C(O)(CCCCN1CCCCC1)c1ccccc1 (single isomer, unassigned) [Compound 98] | 1.81 (≈ 3.16 µM) | 2.04 (≈ 3.56 µM) |  | 
25 | CNCCCCCC(O)(c1ccccc1)C(c1ccccc1)c1cc2cc(C)ccc2nc1OC (single isomer, unassigned) [Compound 151] | 1.7 (≈ 3.63 µM) | 2.12 (≈ 4.52 µM) |  | 
26 | COc1nc2ccccc2cc1C(c1ccc(-c2ccccc2)cc1)C(O)(CCCCN(C)C)c1ccc2ccccc2c1 (centres unmarked) [Compound 176] | 1.84 (≈ 3.17 µM) | 2.06 (≈ 3.55 µM) |  | 
27 | COc1nc2ccc(Br)cc2cc1C(c1ccccc1)C(O)(CCCCN1CCCCC1)c1ccccc1 (single isomer, unassigned) [Compound 100] | 9.09 (≈ 15.8 µM) | 11.44 (≈ 19.9 µM) |  | 
28 | COc1nc2ccc(Br)cc2cc1C(c1ccccc1)C(O)(CCCCN1CCOCC1)c1ccccc1 (single isomer, unassigned) [Compound 114] |  | 7.25 (≈ 12.6 µM) |  | 
29 | COc1nc2ccc(Br)cc2cc1C(c1ccc(Cl)c(Cl)c1)C(O)(CCCCN1CCCCC1)c1ccccc1 (single isomer, unassigned) [Compound 172] | 2.03 (≈ 3.16 µM) | 2.28 (≈ 3.55 µM) |  | 
30 | COc1nc2ccc(Br)cc2cc1C(c1cccc(Cl)c1)C(O)(CCCCN(C)C)c1ccc2ccccc2c1 (single isomer, unassigned) [Compound 163] | 1 (≈ 1.62 µM) | 0.31 (≈ 0.502 µM) |  | 
31 | COc1nc2ccc(Br)cc2cc1C(c1ccccc1)C(O)(CCCCN1CCCCC1)c1ccccc1 (single isomer, unassigned) [Compound 99] | 1.81 (≈ 3.16 µM) | 2.04 (≈ 3.56 µM) |  | 
32 | COc1nc2ccc(Br)cc2cc1C(c1ccccc1)C(O)(CCCCN1CCN(C)CC1)CCc1cccc2ccccc12 (single isomer, unassigned) [Compound 143] | 10.57 (≈ 15.9 µM) | 10.57 (≈ 15.9 µM) |  | 
33 | COc1nc2ccc(Br)cc2cc1C(c1ccccc1)C(O)(CCCCN1CCCCC1)CC(C)C (racemic) [Compound 121] | 8.77 (≈ 15.8 µM) | 1.96 (≈ 3.54 µM) |  | 
34 | CSc1nc2ccc(Br)cc2cc1C(c1ccccc1)C(O)(CCCCN(C)C)c1ccc2ccccc2c1 (single isomer, unassigned) [Compound 3] | 60.0 (≈ 100 µM) | 60.0 (≈ 100 µM) |  | 
35 | COc1nc2cc(C)ccc2cc1C(c1ccccc1)C(O)(CCCCN(C)C)c1ccc2ccccc2c1 (single isomer, unassigned) [Compound 78] | 1.84 (≈ 3.55 µM) |  |  | 
36 | COc1nc2ccc(Br)cc2cc1C(c1ccccc1)C(O)(CCCCN(C)Cc1ccccc1)c1ccccc1 (centres unmarked) [Compound 60] |  | 5.4 (≈ 8.86 µM) |  | 
